Experimental data from patent US20160015064A1, “COMPOUNDS, COMPOSITIONS, AND METHODS FOR MODULATING SWEET TASTE” (CHROMOCELL CORPORATION, priority 2013, published 2016).

Experiments:
[1] = Solubilization of the compounds in solvents/solubilizers and clarity in lemon-lime beverage; assay type: physicochemical; settings: for Time final beverage remained a clear solution: sucrose co-melt (caramel-melts), Q-NATURALE® 200
Experimental: To identify a sufficient delivery mechanism for the sweet enhacing compounds of the present invention, several method of solublization were tested for use in clear beverages. The overall goal was to solubilize the compounds of the invention and have them be deliverable in a clear, carbonated beverage, which can be sweetened with various forms of nutritive and non-nutritive sweeteners without negative flavor impact, i.e. no loss in efficacy (the sweetness perception increase) and no off-flavor formation. In particular, the goal was to identify a delivery mechanism that would allow the compounds to be delivered to the beverage at an “as consumed” level between 10 ppm and 50 ppm. […] The carrier ingredients should not impart any negative physical attributes or negative flavor attributes to the product. An ideal delivery system would not require the labeling of any carrier ingredients and would work with a beverage concentrate model system, preferably a 1+5 concentrate throw.
Initial trials were conducted to dissolve the compound in various flavor type solvents, including ethanol, 200 proof; triacetin; propylene glycol; lemon-lime flavor extract; lemon oil (washed); citrus oil; polysorbate 80; polysorbate 60; polysorbate 20; benzyl alcohol; and NEOBEE® M-5 oil.
In polysorbate formulations, Compound 3 and the polysorbates were accurately weighed into screw-capped glass vials according to Table 8 and heated at 70-90° C. and vortex mixed to facilitate the solubilization. The resulting mixtures were blended into 41.5 brix lemon-lime flavored beverage syrup under stirring and stored overnight at room temperature. The syrup was diluted with 5× water to achieve the final 7.7 brix lemon-lime beverage.
(§1) For example, Compound 3 and polysorbate 80 were accurately weighed into screw-capped glass vials according to Table 9 and heated at 70-90° C. and vortex mixed to facilitate the solubilization. Q-[…]® was added to the 41.5 brix lemon-lime flavored beverage syrup. The polysorbate 80 mixtures were blended into 41.5 brix lemon-lime flavored beverage syrup with Q-[…]® 200 and vortex mixed at 3000 rpm for 75 seconds. The resulting syrups were stored overnight at room temperature. The syrup was then diluted with 5× water to achieve the final 7.7 brix lemon-lime beverage. […] Solution PQ2 was able to maintain clear solution for 1 month.
(§2) Because Q-[…]® was able to maintain the stability of the sweet enhancing compounds, it was evaluated in combination with additional solvents. […] In another example, Compound 3, Q-[…]®, and either 1,2-propylene glycol or ethanol 200 proof were accurately weighed into screw-capped glass vials according to Table 10 and heated and vortex mixed to facilitate the solubilization. The resulting solution mixtures were blended into 41.5 brix lemon-lime flavored beverage syrup and vortexed at 3000 rpm for 75 seconds. The resulting syrups were stored overnight at refrigerated temperature and diluted with 5× water to achieve the final 7.7 brix lemon-lime beverage. All solutions (i.e., PGEQ1-PGEQ4) were able to maintain clear solution for 33 days at room temperature and 14 days at refrigerated temperature.
In another example, 40 mg Compound 3 and 1 g rubusoside were weighed into 20 ml glass vials. 20 ml water was added to the vial, which was vortex mixed slightly to form a suspension solution. The suspension was homogenized at 8000 rpm using a Silverson L5M-A to from an emulsion. The emulsion was heated at 121° C. for 1 h. The sample after heating was suspended at room temperature for 24 h to equilibrate and was filtered afterward. The weight ratio between rubusoside and Compound 3 was determined to be 147:1. Therefore, […] rubusoside was needed to solubilize 25 ppm Compound 3.
The ability of sugar to co-melt with compounds of the invention was also evaluated. 30 mg Compound 3 and 150 mg sucrose were dissolved in a solvent mixture of 9 ml ethanol and 1 ml water. […]

[2] = system: sweetness enhancement effect and off-taste in lemon-lime beverage; experiment: Sensory assessment / informal tasting of solubilized Compound 3 beverages; assay type: in vivo; settings: sucrose co-melt
Experimental: as §1
as §2, with “All solutions (i.e., PGEQ1-PGEQ4) were able to maintain clear solution for 33 days at room temperature and 14 days at refrigerated temperature.” left out
The ability of sugar to co-melt with compounds of the invention was also evaluated. […]

[3] = system: sweetness of orange juice beverage; experiment: Panel sweetness of 75% orange juice with Compound 3 compared to 100% orange juice; assay type: in vivo
Experimental: Concentrated citrus juice (e.g., orange juice concentrate and lemon juice concentrate) can be used to emulsify flavor oils directly. Dilutions of the Compound 3 were made by dissolving the compound into NEOBEE® M-5 oil at 20 mg/ml and into triacetin at 40 mg/ml. These dilutions were then added to orange juice concentrate (60 brix and 63 brix) and lemon juice concentrate (400 gpl) to deliver a final concentration of 15-30 ppm Compound 3, and blended with the Silverson High Shear Mixer. The juices were diluted to their single strength levels (or less) for final consumption.
In one example, Compound 3 was dissolved into triacetin at a concentration of 40 mg/ml. The Compound 3-triacetin mixture was added to orange juice concentrate (1+3 throw) and blended using a high shear mixer. The concentrate was then diluted to a 75% juice product (8.85 brix) and compared to single strength orange juice (11.8 brix). The test sample contained Compound 3 at 20 ppm. Other test variables using 1+5 were included in the panel. Tests were performed with just Compound 3 in orange juice at full strength and 75%. Compound 3 was dosed at 20 and 30 ppm, and the resulting solutions were tested at day 1, 7, 14, and 21. N varied between 9 and 14 panelists.

[4] = heated at 70-90° C., vortex mixed

COc1ccc(C2CC(=O)c3c(O)cccc3O2)cc1O (single isomer, unassigned) [Compound 3, 5-hydroxy-2-(3-hydroxy-4-methoxyphenyl)chroman-4-one]
Precipitation of final beverages ([1]; encapsulated with alpha-, beta-, gamma-cyclodextrin (molar 1:1, 1:2, 1:4), 25 ppm in 7.7 brix lemon-lime beverage): had precipitates
Dissolution in polysorbate 20 [1, 4]: did not dissolve
Dissolution in polysorbate 60 [1, 4]: did not dissolve
Precipitation in final beverages ([1]; polysorbate 80 solutions PS1-PS6, 7.7 brix lemon-lime beverage): precipitated overnight
Time final beverage remained a clear solution ([1]; 7.7 brix lemon-lime beverage, refrigerated temperature): 14 days
Time final beverage remained a clear solution ([1]; 7.7 brix lemon-lime beverage, room temperature): 30 days
Sweetness enhancement effect in final beverage (sensory assessment) ([2]; 7.7 brix lemon-lime beverage): maintained its sweetness enhancement effect
Off-taste (informal tasting assay) ([2]; lemon-lime beverage): perceptible off-taste
Relative Sweetness Compared to Control (100% OJ) ([3]; T1: 75% OJ w/20 ppm, Fresh, Day 1 (Fresh)): Same as Control
Relative Sweetness Compared to Control (100% OJ) ([3]; T2: 75% OJ w/30 ppm, Aged, Day 21): added sweetness
Relative Sweetness Compared to Control (100% OJ) ([3]; T2: 75% OJ w/30 ppm, Fresh, Day 1 (Fresh)): Same as Control
